Experimental data taken from patent US10314799B2 (priority 2015, dated 2019).
Where two headings read alike, the source gives them in different places.

Key:
[1] = tested on: PEDV; details: Virus Research (2013), 171(1), 44-53; cited from earlier work
[2] = tested on: porcine transmissible gastroenteritis; type: in vivo, pigs
[3] = tested on: pseudorabies viral diarrhea; type: in vivo, pigs
[4] = tested on: PEDV; assay: Prevention of porcine epidemic diarrhea of newborn piglets by orally administering taurine to PEDV-carried pregnant sows; type: in vivo, pigs; details: taurine 50 g per sow per day, oral
Description: Prevention of the porcine epidemic diarrhea on the newborn piglets with taurine was implemented by orally administering taurine to pregnant sows.
Drug administration time: 3-30 days before birth of piglets until 15 days after birth of piglets. In consideration of a use-cost, the drug administration time is preferably 5-20 days before birth of piglets until 10 days after birth of piglets, and more preferably 7-14 days before birth of piglets until 5 days after birth of piglets. The effect is subject to an obvious time-effect relationship. The drug administration time for before birth of piglets directly determines a disease incidence of the newborn piglets.
Drug administration dosage: each pregnant sow was administered with 5-500 g of taurine per day, and the administration was in a single dose or in divided doses. The effect is subject to an obvious quantity-effect relationship.
Specific operations: pregnant sows were selected and excrement thereof was tested by RT-PCR to determine the pregnant sows carrying PEDV in vivo. 60 PEDV-carried pregnant sows were divided into two groups randomly. Control group: conventional feeding; experimental group: conventional feeding+50 g per sow per day of taurine.

[5] = tested on: porcine epidemic diarrhea; assay: Treatment of porcine epidemic diarrhea of weaned piglets, care pigs and finishing pigs; type: in vivo; details: 300 mg per kilogram of body weight per day
Method: Treatment of the porcine epidemic diarrhea on the weaned piglets, the care pigs and the finishing pigs with taurine was implemented by orally administering taurine to the pigs, wherein the administration may be carried out by means of feeding in water or mixed feeding.
Drug administration time: the administration was carried out from the day of occurrence of the disease, and in consideration of the use-cost, the drug administration time is preferably 3-30 days, and more preferably 7-14 days. The effect is subject to an obvious time-effect relationship.
(§1) Drug administration dosage: 0.1-2% of taurine was added in the daily-drinking water for the pigs to drink freely; or 0.2-5% of taurine was added into the feed, which is equivalent to a dosage of 100-10000 mg per kilogram of body weight per day of taurine, and the administration was in a single dose or in divided doses. The effect is subject to an obvious quantity-effect relationship.
Specific operations: 60 diseased weaned piglets, 60 diseased care pigs and 60 diseased finishing pigs were selected, and were randomly divided into two groups equivalently. Control group: conventional supportive therapy (fluid infusion+antibiotic therapy+atropine sulfate); experimental group: treatment with taurine (the dosage of taurine was 300 mg per kilogram of body weight per day).

[6] = tested on: porcine epidemic diarrhea; assay: Prevention of porcine epidemic diarrhea of weaned piglets, care pigs and finishing pigs; type: in vivo; details: 200 mg per kilogram of body weight per day
Method: Prevention of the porcine epidemic diarrhea on the weaned piglets, the care pigs and the finishing pigs with taurine was implemented by orally administering taurine to a swine herd, wherein the administration may be carried out by means of feeding in water or mixed feeding.
Drug administration time: a preventative administration was carried out during an epidemic period of the disease, or in autumn, winter and spring when the temperature was low and changed greatly, that is, in the season when the porcine epidemic diarrhea frequently occurs. Generally, the administration can be carried out for a long-term. In consideration of the use-cost, the drug administration time is preferably 3-30 days, and more preferably, 7-14 days. The effect is subject to an obvious time-effect relationship.
as §1, with “0.005-2%” for “0.1-2%”, “in” for “in the”, “0.01-5%” for “0.2-5%”, “50-10000” for “100-10000”
Specific operations: 120 healthy weaned piglets, 120 healthy care pigs and 120 healthy finishing pigs were selected and randomly divided into two groups equivalently. Control group: conventional feeding; experimental group: conventional feeding+taurine (the dosage of taurine was 200 mg per kilogram of body weight per day).

[7] = tested on: porcine epidemic diarrhea; assay: Treatment of porcine epidemic diarrhea of newborn suckling piglets (piglets and lactating sows treated); type: in vivo, pigs; details: diseased newborn suckling piglets; 100 g per sow per day, 0.2 g per piglet per day
Method: Treatment of the porcine epidemic diarrhea on newborn piglets with taurine was implemented by orally administering a taurine solution to diseased suckling piglets and administering taurine to lactating sows, that is, simultaneous treatment of both the suckling piglets and the lactating sows.
Drug administration time: the administration by drenching/mixed-feeding was carried out on the day when the disease occurred in the suckling piglets and a non-interrupted administration lasted for 3-10 days. Lactating sows: non-interrupted oral administration lasted for 5-10 days.
Drug administration dosage: the administration by drenching and/or mixed-feeding was carried out on the day when the disease occurred in the suckling piglets. The administration by drenching: 2% taurine solution at a dosage of 1-5 mL per time and it was taken 2-6 times per day. The administration by mixed-feeding: 1-20 g/L of taurine solution was drunk freely. Lactating sows: each sow was administered with 5-500 g of taurine per day and the administration was in a single dose or in divided doses.
Specific operations: 40 litters of diseased newborn suckling piglets and sows thereof were selected and randomly divided into two groups equivalently. Control group: conventional supportive therapy (fluid infusion+antibiotic therapy+atropine sulfate); experimental group: treatment with taurine.

[8] = tested on: rotavirus diarrhea; assay: Treatment of rotavirus diarrhea; type: in vivo, pigs
[9] = tested on: epidemic diarrhea; details: orally administered to diseased piglets, specific dose; cited from earlier work
[10] = care pigs, dosage as in Embodiment 4
[11] = finishing pigs, dosage as in Embodiment 4
[12] = newborn piglets, dosage as in Embodiment 2
[13] = weaned piglets, dosage as in Embodiment 4

**Q.** With `NC(=O)c1ncn([C@@H]2O[C@H](CO)[C@@H](O)[C@H]2O)n1` [Ribavirin] as the molecule, how does the “inhibition of replication of PEDV” value [1] read?
**A.** Its value is “capable of inhibiting replication of PEDV”.

**Q.** With `NCCS(=O)(=O)O` [taurine, β-aminoethanesulfonic acid] as the molecule, how does the Prognosis [2, 10] read?
**A.** The Prognosis was “Good”.

**Q.** What about the “Survival rate (%)” value [2, 10] of the same molecule?
**A.** The value was 93.3%.

**Q.** And the Prognosis [2, 11]?
**A.** Its Prognosis is “Good”.

**Q.** What about the “Survival rate (%)” value [2, 11] of the same molecule?
**A.** The value was 96.6%.

**Q.** What about the Prognosis [2, 12] of the same molecule?
**A.** Its Prognosis is “Good”.

**Q.** What about the “Survival rate (%)” value [2, 12] of the same molecule?
**A.** The value was 16.6%.

**Q.** And the Prognosis [2, 13]?
**A.** Its Prognosis is “Good”.

**Q.** What about the “Survival rate (%)” value [2, 13] of the same molecule?
**A.** Its value is 90%.

**Q.** And the Prognosis [3, 10]?
**A.** Its Prognosis is “General”.

**Q.** And the “Survival rate (%)” value [3, 10]?
**A.** Its value is 43.3%.

**Q.** What about the “Survival rate (%)” value [3, 12] of the same molecule?
**A.** The value was 0%.

**Q.** What about the “treatment effect on the pseudorabies viral diarrhea” value ([3]; summary of Table 5) of the same molecule?
**A.** Its value is “no treatment effect”.

**Q.** And the “Death rate of the newborn piglets (%)” value [4]?
**A.** Its value is 75.1%.

**Q.** And the “Disease incidence of the new born piglets (%)” value [4]?
**A.** Its value is 85%.

**Q.** What about the Prognosis ([5]; diseased care pigs) of the same molecule?
**A.** The Prognosis was “Good”.

**Q.** What about the “Survival rate (%)” value ([5]; diseased care pigs) of the same molecule?
**A.** Its value is 93.3%.

**Q.** What about the Prognosis ([5]; diseased finishing pigs) of the same molecule?
**A.** The Prognosis was “Good”.

**Q.** And the “Survival rate (%)” value ([5]; diseased finishing pigs)?
**A.** The value was 100%.

**Q.** And the Prognosis ([5]; diseased weaned piglets)?
**A.** The Prognosis was “Good”.

**Q.** What about the “Survival rate (%)” value ([5]; diseased weaned piglets) of the same molecule?
**A.** The value was 90.0%.

**Q.** What about the “Disease incidence (%)” value ([6]; care pigs) of the same molecule?
**A.** Its value is 3.3%.

**Q.** And the Prognosis ([6]; care pigs)?
**A.** The Prognosis was “Excellent”.

**Q.** What about the “Survival rate (%)” value ([6]; care pigs) of the same molecule?
**A.** The value was 96.6%.

**Q.** What about the “Disease incidence (%)” value ([6]; finishing pigs) of the same molecule?
**A.** Its value is 0%.

**Q.** What about the Prognosis ([6]; finishing pigs) of the same molecule?
**A.** Its Prognosis is “Excellent”.

**Q.** What about the “Survival rate (%)” value ([6]; finishing pigs) of the same molecule?
**A.** The value was 98.3%.

**Q.** What about the “Disease incidence (%)” value ([6]; weaned piglets) of the same molecule?
**A.** The value was 6.6%.

**Q.** And the Prognosis ([6]; weaned piglets)?
**A.** Its Prognosis is “Excellent”.

**Q.** What about the “Survival rate (%)” value ([6]; weaned piglets) of the same molecule?
**A.** Its value is 96.6%.

**Q.** What about the “10-day-aged survival rate (%)” value [7] of the same molecule?
**A.** The value was 22.5%.

**Q.** And the Prognosis [7]?
**A.** The Prognosis was “Good”.

**Q.** And the Weaned survival rate [7]?
**A.** Its Weaned survival rate is 20.7.

**Q.** What about the Prognosis [8, 10] of the same molecule?
**A.** Its Prognosis is “Good”.

**Q.** And the “Survival rate (%)” value [8, 10]?
**A.** The value was 96.6%.

**Q.** And the Prognosis [8, 12]?
**A.** Its Prognosis is “Good”.

**Q.** What about the “Survival rate (%)” value [8, 12] of the same molecule?
**A.** Its value is 93.6%.

**Q.** What about the Prognosis [8, 13] of the same molecule?
**A.** The Prognosis was “Good”.

**Q.** What about the “Survival rate (%)” value [8, 13] of the same molecule?
**A.** The value was 96.6%.

**Q.** With povidone iodine as the molecule, how does the “improvement of survival rate” value [9] read?
**A.** The value was 5-10%.
